Laboratory results published in the supplement of paper PMC10307832.

Legend:
Test in all cases: relative viability (nuclei count vs DMSO), 5 days (fraction); higher = more cells survive
LCLC-97TM1 = tested on: LCLC-97TM1
In short: (§1)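 Dosing by pin tool came one day after lung cancer cell lines were seeded in 1536-well plates, using either one drug or a fixed anchor-drug dose plus five library-drug doses (not always all listed) in √10 steps. After 5 days, nuclei were counted on 4× images. Relative viability is treated-well nuclei count divided by vehicle-well nuclei count, and values are medians of duplicate plates.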

HCC-827 = tested on: HCC-827
In short: as §1

NCI-H1437 = tested on: NCI-H1437
In short: as §1

NCI-H1666 = tested on: NCI-H1666
In short: as §1

NCI-H2087 = tested on: NCI-H2087
In short: as §1

NCI-H1975 = tested on: NCI-H1975
In short: as §1

HCC-44 = tested on: HCC-44
In short: as §1

NCI-H650 = tested on: NCI-H650
In short: as §1

LU99A = tested on: LU99A
In short: as §1

LOU-NH91 = tested on: LOU-NH91
In short: as §1

H3255 = tested on: H3255
In short: as §1

COR-L 105 = tested on: COR-L 105
In short: as §1

PC-3 [JPC-3] = tested on: PC-3 [JPC-3]
In short: as §1

EKVX = tested on: EKVX
In short: as §1

201T = tested on: 201T
In short: as §1

NCI-H647 = tested on: NCI-H647
In short: as §1

SW 1573 = tested on: SW 1573
In short: as §1

EPLC-272H = tested on: EPLC-272H
In short: as §1

NCI-H2170 = tested on: NCI-H2170
In short: as §1

BEN = tested on: BEN
In short: as §1

NCI-H2085 = tested on: NCI-H2085
In short: as §1

`COc1cc2nccc(Oc3ccc(NC(=O)Nc4cc(C)on4)c(Cl)c3)c2cc1OC` [Tivozanib] + CS(=O)(=O)N1CCN(Cc2cc3nc(-c4cccc5[nH]ncc45)nc(N4CCOCC4)c3s2)CC1 [Pictilisib] (partner 1 µM) was tested, and the relative viability (LCLC-97TM1; first compound 0.005 µM) was 0.206, the relative viability (LCLC-97TM1; first compound 0.01581 µM) was 0.23 and the relative viability (LCLC-97TM1; first compound 0.1581 µM) was 0.119. The relative viability (LCLC-97TM1; first compound 0.5 µM) was 0.164, the relative viability (HCC-827; first compound 0.005 µM) was 0.864 and the relative viability (HCC-827; first compound 0.01581 µM) was 0.924. The relative viability (HCC-827; first compound 0.05 µM) was 1.01, the relative viability (HCC-827; first compound 0.1581 µM) was 1.24 and the relative viability (HCC-827; first compound 0.5 µM) was 0.982. The relative viability (NCI-H1437; first compound 0.005 µM) was 0.347, the relative viability (NCI-H1437; first compound 0.01581 µM) was 0.463 and the relative viability (NCI-H1437; first compound 0.05 µM) was 0.401. It also gave a relative viability (NCI-H1437; first compound 0.1581 µM) of 0.177, a relative viability (NCI-H1437; first compound 0.5 µM) of 0.52 and a relative viability (NCI-H1666; first compound 0.005 µM) of 0.404. The relative viability (NCI-H1666; first compound 0.01581 µM) was 0.393, the relative viability (NCI-H1666; first compound 0.05 µM) was 0.384 and the relative viability (NCI-H1666; first compound 0.1581 µM) was 0.389. For the same compound, the relative viability (NCI-H1666; first compound 0.5 µM) was 0.478, the relative viability (NCI-H2087; first compound 0.005 µM) was 0.765 and the relative viability (NCI-H2087; first compound 0.01581 µM) was 1.08. It also gave a relative viability (NCI-H2087; first compound 0.05 µM) of 0.851, a relative viability (NCI-H2087; first compound 0.1581 µM) of 0.738 and a relative viability (NCI-H2087; first compound 0.5 µM) of 1.02. The relative viability (NCI-H1975; first compound 0.005 µM) was 0.278, the relative viability (NCI-H1975; first compound 0.01581 µM) was 0.277 and the relative viability (NCI-H1975; first compound 0.05 µM) was 0.271. The relative viability (NCI-H1975; first compound 0.1581 µM) was 0.234, the relative viability (NCI-H1975; first compound 0.5 µM) was 0.275 and the relative viability (HCC-44; first compound 0.005 µM) was 0.617. The relative viability (HCC-44; first compound 0.01581 µM) was 0.471, the relative viability (HCC-44; first compound 0.05 µM) was 0.718 and the relative viability (HCC-44; first compound 0.1581 µM) was 0.488. For the same compound, the relative viability (HCC-44; first compound 0.5 µM) was 0.654, the relative viability (NCI-H650; first compound 0.005 µM) was 0.674 and the relative viability (NCI-H650; first compound 0.01581 µM) was 0.866. For the same compound, the relative viability (NCI-H650; first compound 0.05 µM) was 0.771, the relative viability (NCI-H650; first compound 0.1581 µM) was 0.78 and the relative viability (NCI-H650; first compound 0.5 µM) was 0.77. It also gave a relative viability (LU99A; first compound 0.005 µM) of 0.315, a relative viability (LU99A; first compound 0.01581 µM) of 0.339 and a relative viability (LU99A; first compound 0.05 µM) of 0.348. It also gave a relative viability (LU99A; first compound 0.5 µM) of 0.317, a relative viability (LOU-NH91; first compound 0.005 µM) of 0.467 and a relative viability (LOU-NH91; first compound 0.01581 µM) of 0.519. The relative viability (LOU-NH91; first compound 0.05 µM) was 0.559, the relative viability (LOU-NH91; first compound 0.1581 µM) was 0.485 and the relative viability (LOU-NH91; first compound 0.5 µM) was 0.526. For the same compound, the relative viability (H3255; first compound 0.005 µM) was 0.451, the relative viability (H3255; first compound 0.01581 µM) was 0.435 and the relative viability (H3255; first compound 0.05 µM) was 0.538. For the same compound, the relative viability (H3255; first compound 0.1581 µM) was 0.449, the relative viability (H3255; first compound 0.5 µM) was 0.421 and the relative viability (COR-L 105; first compound 0.01581 µM) was 0.405. The relative viability (COR-L 105; first compound 0.05 µM) was 0.431, the relative viability (COR-L 105; first compound 0.1581 µM) was 0.347 and the relative viability (COR-L 105; first compound 0.5 µM) was 0.317. It also gave a relative viability (PC-3 [JPC-3]; first compound 0.005 µM) of 0.705, a relative viability (PC-3 [JPC-3]; first compound 0.01581 µM) of 0.698 and a relative viability (PC-3 [JPC-3]; first compound 0.05 µM) of 0.757. For the same compound, the relative viability (PC-3 [JPC-3]; first compound 0.1581 µM) was 0.604, the relative viability (PC-3 [JPC-3]; first compound 0.5 µM) was 0.706 and the relative viability (EKVX; first compound 0.005 µM) was 0.392. For the same compound, the relative viability (EKVX; first compound 0.01581 µM) was 0.426, the relative viability (EKVX; first compound 0.05 µM) was 0.535 and the relative viability (EKVX; first compound 0.1581 µM) was 0.394. It also gave a relative viability (EKVX; first compound 0.5 µM) of 0.497, a relative viability (201T; first compound 0.005 µM) of 0.377 and a relative viability (201T; first compound 0.01581 µM) of 0.69. For the same compound, the relative viability (201T; first compound 0.05 µM) was 0.686, the relative viability (201T; first compound 0.1581 µM) was 0.588 and the relative viability (201T; first compound 0.5 µM) was 0.632. For the same compound, the relative viability (NCI-H647; first compound 0.005 µM) was 0.419, the relative viability (NCI-H647; first compound 0.01581 µM) was 0.438 and the relative viability (NCI-H647; first compound 0.05 µM) was 0.402. It also gave a relative viability (NCI-H647; first compound 0.1581 µM) of 0.296, a relative viability (NCI-H647; first compound 0.5 µM) of 0.227 and a relative viability (SW 1573; first compound 0.005 µM) of 0.448. It also gave a relative viability (SW 1573; first compound 0.01581 µM) of 0.479, a relative viability (SW 1573; first compound 0.05 µM) of 0.505 and a relative viability (SW 1573; first compound 0.1581 µM) of 0.346. For the same compound, the relative viability (SW 1573; first compound 0.5 µM) was 0.406, the relative viability (EPLC-272H; first compound 0.005 µM) was 0.311 and the relative viability (EPLC-272H; first compound 0.01581 µM) was 0.31. It also gave a relative viability (EPLC-272H; first compound 0.05 µM) of 0.326, a relative viability (EPLC-272H; first compound 0.1581 µM) of 0.285 and a relative viability (EPLC-272H; first compound 0.5 µM) of 0.162. For the same compound, the relative viability (NCI-H2170; first compound 0.005 µM) was 0.312, the relative viability (NCI-H2170; first compound 0.01581 µM) was 0.344 and the relative viability (NCI-H2170; first compound 0.05 µM) was 0.404. It also gave a relative viability (NCI-H2170; first compound 0.5 µM) of 0.335, a relative viability (BEN; first compound 0.005 µM) of 0.61 and a relative viability (BEN; first compound 0.01581 µM) of 0.541. The relative viability (BEN; first compound 0.05 µM) was 0.603, the relative viability (BEN; first compound 0.5 µM) was 0.505 and the relative viability (NCI-H2085; first compound 0.005 µM) was 0.474. For the same compound, the relative viability (NCI-H2085; first compound 0.01581 µM) was 0.456, the relative viability (NCI-H2085; first compound 0.05 µM) was 0.536 and the relative viability (NCI-H2085; first compound 0.1581 µM) was 0.405. For the same compound, the relative viability (NCI-H2085; first compound 0.5 µM) was 0.408.
